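Results reflect a 48-hour exposure of cells in 96-well plates to compound at five concentrations. At the GI50, growth is halved.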 Activity calls are given as the source filed them. Cut-off read from the data, not from the text of the source: active = GI50 up to about 1.1 µM and inactive = higher.
Columns and labels:
Test in all cases: NCI tumour cell line growth inhibition, 48 h
UO-31 = test system: UO-31
RXF 393 = test system: RXF 393
CAKI-1 = test system: CAKI-1
K562 = test system: K562
A498 = test system: A498
SR = test system: SR
Hs-578T = test system: Hs-578T
786-0 = test system: 786-0
U-251 = test system: U-251
NCI-H23 = test system: NCI-H23
SN12C = test system: SN12C
NCI/ADR-RES = test system: NCI/ADR-RES
MDA-MB-435 = test system: MDA-MB-435
UACC-257 = test system: UACC-257
RPMI-8226 = test system: RPMI-8226
COLO 205 = test system: COLO 205
DU-145 = test system: DU-145
MCF7 = test system: MCF7
ACHN = test system: ACHN
NCI-H460 = test system: NCI-H460
HCT-15 = test system: HCT-15
SF-539 = test system: SF-539
NCI-H226 = test system: NCI-H226
OVCAR-4 = test system: OVCAR-4
HL-60 = test system: HL-60
HOP-92 = test system: HOP-92
EKVX = test system: EKVX
HCC 2998 = test system: HCC 2998
HCT-116 = test system: HCT-116
IGROV-1 = test system: IGROV-1
OVCAR-3 = test system: OVCAR-3
UACC-62 = test system: UACC-62
CCRF-CEM = test system: CCRF-CEM
NCI-H522 = test system: NCI-H522
OVCAR-5 = test system: OVCAR-5
SNB-19 = test system: SNB-19
SK-MEL-28 = test system: SK-MEL-28
M14 = test system: M14
SF-268 = test system: SF-268
MOLT-4 = test system: MOLT-4
SF-295 = test system: SF-295
A549 = test system: A549
KM12 = test system: KM12
SK-MEL-2 = test system: SK-MEL-2
LOX IMVI = test system: LOX IMVI
SW-620 = test system: SW-620
BT-549 = test system: BT-549
HT-29 = test system: HT-29
TK-10 = test system: TK-10
HOP-62 = test system: HOP-62
Malme-3M = test system: Malme-3M
MDA-MB-231 = test system: MDA-MB-231
PC-3 = test system: PC-3
OVCAR-8 = test system: OVCAR-8
T47D = test system: T47D
SK-MEL-5 = test system: SK-MEL-5
MDA-N = test system: MDA-N
SNB-75 = test system: SNB-75
SK-OV-3 = test system: SK-OV-3

Measured: GI50

O=S(=O)(N/C(=N\O)Nc1ccc(Cl)cc1)c1cc(S(=O)(=O)c2ccccc2)cs1
18.8 µM: HCT-15
inactive: UO-31 14.3 µM | RXF 393 16.3 µM | CAKI-1 16.6 µM | K562 10.4 µM | A498 13.8 µM | SR 6.21 µM | Hs-578T 13.6 µM | 786-0 15.7 µM | U-251 13.7 µM | NCI-H23 17.9 µM | SN12C 15.2 µM | NCI/ADR-RES 33.2 µM | MDA-MB-435 13.8 µM | UACC-257 15.9 µM | RPMI-8226 7.87 µM | COLO 205 18.7 µM | DU-145 18 µM | MCF7 17.3 µM | ACHN 16.1 µM | NCI-H460 17.7 µM | SF-539 14.3 µM | NCI-H226 28.6 µM | OVCAR-4 12.9 µM | HL-60 2.81 µM | HOP-92 9.62 µM | EKVX 16.3 µM | HCC 2998 13.4 µM | HCT-116 13.6 µM | IGROV-1 17.9 µM | OVCAR-3 13.5 µM | UACC-62 14.8 µM | CCRF-CEM 11.2 µM | NCI-H522 10.6 µM | OVCAR-5 16.5 µM | SNB-19 17.9 µM | SK-MEL-28 16 µM | M14 15.1 µM | SF-268 11.5 µM | MOLT-4 6.87 µM | SF-295 15.8 µM | A549 24 µM | KM12 22.2 µM | SK-MEL-2 18.7 µM | LOX IMVI 15.5 µM | SW-620 19.8 µM | BT-549 15.5 µM | HT-29 21 µM | TK-10 19.2 µM | HOP-62 17.5 µM | Malme-3M 14.2 µM | MDA-MB-231 20.3 µM | PC-3 15 µM | OVCAR-8 15.8 µM | T47D 11.6 µM | SK-MEL-5 9.08 µM | MDA-N 15.8 µM

NC1(c2cc3ccccc3s2)CCCC1
65.2 µM: HCT-15
inactive: UO-31 69.2 µM | RXF 393 43.8 µM | CAKI-1 > 100 µM | K562 25.2 µM | A498 > 100 µM | SR 21.1 µM | Hs-578T > 100 µM | SNB-75 67.9 µM | 786-0 54.2 µM | U-251 48 µM | NCI-H23 > 100 µM | SN12C 57.5 µM | NCI/ADR-RES 78.9 µM | MDA-MB-435 41 µM | UACC-257 31 µM | RPMI-8226 17.7 µM | COLO 205 22.9 µM | DU-145 > 100 µM | MCF7 57.8 µM | ACHN 86.5 µM | NCI-H460 33.6 µM | SF-539 18.5 µM | NCI-H226 > 100 µM | OVCAR-4 42.6 µM | HL-60 18.3 µM | HOP-92 51.6 µM | EKVX > 100 µM | HCC 2998 21.2 µM | HCT-116 33.8 µM | IGROV-1 > 100 µM | OVCAR-3 > 100 µM | UACC-62 50.4 µM | CCRF-CEM 16.9 µM | NCI-H522 92.5 µM | OVCAR-5 > 100 µM | SNB-19 > 100 µM | SK-MEL-28 23.7 µM | SK-OV-3 > 100 µM | M14 25.5 µM | SF-268 > 100 µM | MOLT-4 18.4 µM | SF-295 71.3 µM | A549 90.6 µM | KM12 43.9 µM | SK-MEL-2 58.9 µM | LOX IMVI 36.5 µM | SW-620 49.2 µM | BT-549 > 100 µM | HT-29 32.9 µM | TK-10 34.1 µM | HOP-62 > 100 µM | Malme-3M 36.9 µM | MDA-MB-231 83.8 µM | PC-3 32 µM | OVCAR-8 > 100 µM | T47D 36.3 µM | SK-MEL-5 24.1 µM | MDA-N 48.9 µM

Source: ChEMBL document CHEMBL1201862, “PubChem BioAssay data set” (2004)
